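Tested at 5 concentrations; 48 h exposure; 96-well plates; endpoints linearly interpolated, else capped at highest concentration. GI50 is the concentration that inhibits growth by half.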 Calls of active or inactive are those of the source. No stated cut-off is given here; in the data, active = GI50 up to about 1.1 µM and inactive = higher.
Tests used:
Experiment in all cases: DTP human tumour cell line panel, 48 h
[1] = tested on: 786-0
[2] = tested on: A498
[3] = tested on: A549
[4] = tested on: ACHN
[5] = tested on: CCRF-CEM
[6] = tested on: COLO 205
[7] = tested on: DLD-1
[8] = tested on: DMS-114
[9] = tested on: EKVX
[10] = tested on: HCC 2998
[11] = tested on: HCT-116
[12] = tested on: HCT-15
[13] = tested on: HL-60
[14] = tested on: HOP-18
[15] = tested on: HOP-62
[16] = tested on: HOP-92
[17] = tested on: HT-29
[18] = tested on: IGROV-1
[19] = tested on: K562
[20] = tested on: KM-20L2
[21] = tested on: KM12
[22] = tested on: LXFL 529
[23] = tested on: M14
[24] = tested on: M19-MEL
[25] = tested on: MOLT-4
[26] = tested on: Malme-3M
[27] = tested on: NCI-H23
[28] = tested on: NCI-H460
[29] = tested on: NCI-H522
[30] = tested on: OVCAR-3
[31] = tested on: OVCAR-4
[32] = tested on: OVCAR-5
[33] = tested on: OVCAR-8
[34] = tested on: RXF 393
[35] = tested on: RXF 631
[36] = tested on: SF-268
[37] = tested on: SF-295
[38] = tested on: SF-539
[39] = tested on: SK-MEL-28
[40] = tested on: SK-MEL-2
[41] = tested on: SK-MEL-5
[42] = tested on: SN12C
[43] = tested on: SNB-78
[44] = tested on: SR
[45] = tested on: SW-620
[46] = tested on: TK-10
[47] = tested on: U-251
[48] = tested on: UACC-257
[49] = tested on: UACC-62
[50] = tested on: UO-31
[51] = tested on: CAKI-1
[52] = tested on: DMS-273
[53] = tested on: NCI-H226
[54] = tested on: RPMI-8226
[55] = tested on: SK-OV-3
[56] = tested on: SNB-19
[57] = tested on: SNB-75

Measured: GI50

COC(=O)/C(=N\NC(=O)c1ccccc1O)C(C#N)c1ccc(Cl)cc1 (stereo not given)
inactive: [1] 18 µM | [2] > 100 µM | [3] 3.85 µM | [4] 5.85 µM | [5] 36.8 µM | [6] > 100 µM | [7] 24.5 µM | [8] 24.7 µM | [9] 15.6 µM | [10] 30.3 µM | [11] 30.3 µM | [13] 24.9 µM | [14] 69.3 µM | [15] 14.6 µM | [16] 89.7 µM | [17] 74.1 µM | [18] 7.4 µM | [19] 37.9 µM | [20] 33.8 µM | [21] 43.6 µM | [22] 34.3 µM | [23] 40.6 µM | [24] 75.9 µM | [25] 31.4 µM | [26] 26.1 µM | [27] 24.4 µM | [28] 39 µM | [29] 25.2 µM | [30] 29.9 µM | [31] 26.7 µM | [32] 34.9 µM | [33] 28.1 µM | [34] 2.04 µM | [35] 36.1 µM | [36] 13.2 µM | [37] 30.5 µM | [38] 9.29 µM | [39] 28.3 µM | [40] 21.7 µM | [41] 16.7 µM | [42] 45.5 µM | [43] 26.2 µM | [44] 37.3 µM | [45] 44.5 µM | [46] > 100 µM | [47] 44.7 µM | [48] 31.5 µM | [49] 3.69 µM | [50] 16.7 µM
33 µM: [12]

O=C(c1ccccc1)C(c1ccccc1)C1(O)C(=O)Nc2ccc(Br)cc21 (stereo not given)
inactive: [1] 71.9 µM | [2] > 100 µM | [3] > 100 µM | [4] > 100 µM | [51] 99.1 µM | [5] 17.7 µM | [6] > 100 µM | [7] 48.2 µM | [8] 21.6 µM | [52] 31.6 µM | [9] 68.2 µM | [10] > 100 µM | [11] 37.9 µM | [13] 16.6 µM | [15] 59.3 µM | [16] 73.5 µM | [17] 52 µM | [18] 56.4 µM | [19] 18.9 µM | [20] > 100 µM | [21] 95.3 µM | [22] 19.8 µM | [23] 30.5 µM | [24] 15.4 µM | [25] 23.6 µM | [26] 76.6 µM | [53] 40.5 µM | [27] 50.4 µM | [28] > 100 µM | [29] 20.9 µM | [30] 45.6 µM | [31] 32.8 µM | [32] > 100 µM | [33] 52.8 µM | [54] 17.9 µM | [34] > 100 µM | [35] 33.7 µM | [36] 72.6 µM | [37] > 100 µM | [38] 44.9 µM | [39] 46.1 µM | [40] 61.1 µM | [55] > 100 µM | [42] 35.8 µM | [56] > 100 µM | [57] 40.1 µM | [43] > 100 µM | [44] 18.7 µM | [45] 72.1 µM | [46] > 100 µM | [47] 65 µM | [48] 22.3 µM | [49] 20.1 µM | [50] 63.8 µM
60.1 µM: [12]

— ChEMBL document CHEMBL1201862, “PubChem BioAssay data set” (2004)
